Assay results: patent US12085575B2, “Compositions and methods for detecting proteinopathies” (BOARD OF SUPERVISORS OF LOUISIANA STATE UNIVERSITY AND …, priority 2011, dated 2024)
Residues, ends and D or L forms follow the SMILES beside them. *: point of attachment. Cbz = O=C(OCc1ccccc1)*

Assays:
Assay type in all cases: cell-based, human
LC3 and p62 = test: UV-induced degradation of autophagy substrates LC3 and p62 (Western blot)
Method: Immunoblotting and immunofluorescence analysis: Immunoblotting analysis of proteins in cultured cells: Cells ([…]) were cultured in 35 mm tissue culture plates. After various experimental treatments, cells were lysed using an SDS-PAGE sample buffer. Cell lysates were then analyzed by SDS-PAGE (10% for p62 or 15% for LC3 and polyubiquitin conjugates) and immunoblotting analysis using either anti-ISG15 (raised against human ISG15 (23)), anti-ubiquitin (Sigma-Aldrich), anti-HA (gift from Dr. Walworth at Robert Wood Johnson Medical School/University of Medicine and Dentistry of New Jersey; Piscataway, NJ)), anti-LC3 (MBL International Corporation; Woburn, MA), or p62 (Sigma-Aldrich) antibodies, as indicated, using the ECL Western procedure (Pierce) and the BioRad VersaDoc Imaging System.
Because degradation of proteasome substrates is deregulated in A-T cells, the degradation of the autophagy substrates (autophagic flux) LC3 and p62 was assessed in UV-exposed A-T and ATM+ cells (55). For FIGS. 10A-10D, A-T and ATM+ cells were treated with Bafl (1 nM for 18 h) and then exposed to UV as indicated (25 mJ/m2). Three hours after recovery in the presence of inhibitors, cells were lysed. Cell lysates were analyzed by Western blotting for LC3 (FIG. 10A), p62 […], and actin (lower panels in FIGS. 10A and 10C) using their specific antibodies. Intensity of the total LC3 (LC3-I+II) and p62 proteins was quantitated using BioRad Quantity One software, and the results shown in FIGS. 10B and 10D, respectively. […] show average values (±SEM) of % degradation of LC3 and p62 from three independent experiments. All control values (−UV and +Bafl) are normalized to 100%, and values for experimental treatments were expressed as percent variations over control
UV induces aberrant degradation of autophagy substrate LC3 in A-T cells and brain slices. In FIG. 19A, LC3 degradation in UV-treated A-T cells is shown. […] Intensities of the total LC3 bands were quantitated using BioRad Quantity One software.

[1] = system: autophagosomes and autophagolysosomes; test: Cyt-ID and LysoTracker Red staining of autophagosomes, lysosomes and autophagolysosomes; details: for fusion between autophagosomes and lysosomes: Bafl 1 nM 18 h; for mean # of green dots/cell (autophagosomes) / mean # of yellow dots/cell (autophagolysosomes): A-T/control shRNA cells, bafilomycin treated
Method: Autophagasome, lysosome and autophagolysosomes staining. Cells (100,000/point) were cultured on fibronectin-coated glass coverslips. Cells were treated with autophagy inhibitor Bafl (1 nM) (Sigma-Aldrich) for 18 hr. Cells were then exposed to UV radiation and allowed to recover in the presence of inhibitors for 3 h. Cells were then washed (2×1 min) with PBS and co-stained with Cyt-ID® (Cyt-ID® Autophagy Detection Kit from Enzo Lifesciences; Farmingdale, NY) and Lyso Tracker® Red DND-99 (Invitrogen) for 30 min at 37° C. in a CO2 incubator following manufacturer's protocol. Stained cells were then washed (2×1 min) with PBS and fixed with 4% paraformaldehyde for 20 min at room temperature. After washing with PBS (3×10 min), cells were mounted on slides in anti-fade mounting medium with DAPI (Invitrogen). Images were taken using a 63× oil immersion objective with a Leica DMRA2 upright microscope run through SlideBook software (Intelligent Imaging Innovations).
Autophagic flux was also monitored using Cyto-ID® and LysoTrack Red dyes. A-T and ATM+ cells were treated with Bafl (1 nM for 18 h) and then exposed to UV (25 mJ/m2) as indicated. Three hours after recovery in the presence of inhibitors, cells were co-stained with Cyt-ID® and LysoTracker Red® dyes. Fluorescence images of Cyt-ID® and LysoTracker Red® stained cells were made (Color images not shown). Green (autophagosomes; from Cyt-TD®-stained panels), red (lysosomes; from LysoTracker Red-stained panels), and yellow (autophagolysosomes; from merged panels) dots in A-T and ATM+ cells were counted manually using the ImageJ plug-in Cell Counter. Mean number of dots/cell is shown in FIGS. 11A and 11B, respectively. In FIGS. 11A and 11B, the number of autophagosomes (green dots) is represented by stippled bars; the number of lysosomes (red dots) is presented by lined bar; and the number of autophagolysosomes (yellow dots) is represented by clear (white) bars.
Bafilomycin inhibits autophagy at a late stage (47). Whether 3-methyl adenine (3-MA), an autophagy inhibitor known to inhibit autophagy at early stage by inhibiting formation of autophagosomes (56), could block UV-induced autophagic flux was tested in A-T/LV-control shRNA cells. Using Cyto-ID® and LysoTrack Red dyes as described herein in FIGS. 9A, 9B, 11A and 11B, the same criteria were used to judge autophagic activity in immunofluorescence analysis as described for FIGS. 11A and 11B.
The effect of 3-MA on UV-induced autophagic flux was tested in A-T/LV-ISG15 shRNA cells. A-T/LV-ISG15 shRNA cells were either left untreated or treated with 3-MA (10 nM for 18 h), and cells were then exposed to UV (25 mJ/m2). Three hours after recovery in the presence of the inhibitor, cells were co-stained with Cyt-ID® and LysoTracker Red® dyes. Fluorescence images of Cyt-ID® and LysoTracker Red® stained cells were made.

[2] = system: HA-polyubiquitylated proteins; test: UV-induced degradation of HA-polyubiquitylated proteins (anti-HA Western blot); details: A-T cells; 50 nM Bafl
p53 = p53 turnover with CHX with or without MG132; details: ATM+ cells, MG132 10 μM, CHX 10 μg/ml, 6 hours
Method: Both p53 and STAT3 are known targets of the ubiquitin/26S proteasome pathway. To determine whether steady state level of these proteins is regulated by ATM, turnover of both p53 and STAT3 were measured. In FIG. 2C, FT169A (A-T) and FT169A (ATM+) cells were treated with the protein synthesis inhibitor CHX (10 μg/ml) in the presence (lanes 3 and 6) or absence (lanes 2 and 5) of the proteasome inhibitor MG132 (10 μM) for 6 hours. Cell lysates were analyzed by immunoblotting using an anti-p53 antibody (upper row). The intensity of the p53 bands was measured using a Kodak Image station 2000R […]. Results are shown in the bar graph (right panel). The filter used for immunoblotting was stained with Ponceau S to assure equal protein loading (lower row). […] By contrast, p53 protein was rapidly degraded within 6 hours of CHX treatment in FT169A (ATM+) cells (FIG. 2C, lanes 4 and 5, and bar graph for p53 band quantization).

Compound | UV-mediated degradation of LC3 and p62 (LC3 and p62; A-T cells, Bafl 1 nM 18 h, UV 25 mJ/m2) | LC3 and p62 levels (LC3 and p62; ATM+ cells treated with UV in the absence or presence of Bafl) | UV-induced autophagic flux (LC3 degradation) (LC3 and p62; ATM+ cells, Bafilomycin A1 1 nM 18 h, UV 25 mJ) | fusion between autophagosomes and lysosomes ([1]; A-T cells) | mean # of green dots/cell (autophagosomes) ([1]; with UV) [dots/cell] | mean # of yellow dots/cell (autophagolysosomes) ([1]; with UV) [dots/cell] | mean # of green dots/cell (autophagosomes) ([1]; without UV) [dots/cell] | mean # of yellow dots/cell (autophagolysosomes) ([1]; without UV) [dots/cell] | fusion between autophagosomes and lysosomes ([1]; ATM+ cells) | UV-induced degradation of cellular proteins [2] | turnover of p53 in the presence of CHX (p53)
CO/C1=C\C(C)=C\[C@@H](C)[C@@H](O)[C@@H](C)C/C(C)=C/C=C/[C@H](OC)[C@@H]([C@@H](C)[C@@H](O)[C@H](C)[C@@]2(O)C[C@@H](O)[C@H](C)[C@@H](C(C)C)O2)OC1=O [Bafilomycin A1] | failed to protect | no apparent changes | protected | failed to do so | 0.8 | 1.5 | 6 | 5.8 | blocked fusion | failed to protect | 
CC(C)C[C@@H](C=O)NC(=O)[C@H](CC(C)C)NC(=O)[C@H](CC(C)C)NC(=O)OCc1ccccc1 [MG132] (Cbz-Leu-Leu-Leu-aldehyde) |  |  |  |  |  |  |  |  |  |  | blocked
